Data from patent publication US20160367511A1, “EFFICACY OF DIETARY DHA-PHOSPHOLIPID FOR BRAIN DHA AND DPA ACCRETION IN NEONATES” (N.V. NUTRICIA, priority 2013, published 2016).

Details: both, Yorkshire x Landrace cross sows bred with Hampshire boars, pig, in vivo, 6 days
Procedure: The TAG tracer (TAG-^13C-DHA) had ^13C-DHA in the sn-2 position with unlabeled 16:0 in the sn-1 and sn-3 positions. The tracer representative for PL was phosphatidylcholine (PC) with ^13C-DHA in the sn-2 position and unlabeled 16:0 in the sn-1 position (PC-^13C-DHA).
Sows (Yorkshire and Landrace cross) were bred with Hampshire boars. After birth, piglets were left to nurse with the sow for at least 48 hours. Twenty piglets, 2 to 4 days of age, were chosen for the study based on the following criteria: weight (about 2.0 kg), gender (10 males and 10 females), health (active and apparently normal, and not the smallest animal in the litter) and sow. Piglets were given a unique number/color combination identifier and then were transported to Large Animal Research and Teaching Unit (LARTU), Cornell University.
At the study site, piglets were housed in individual stainless steel cages and were placed on a single fully balanced commercially available young farm animal milk replacer formula immediately upon arrival.
On day 16 of life, 16 robust piglets were assigned to two dosing groups balanced with respect to gender, weight, and age but otherwise distributed randomly. Group PC were orally dosed with PC-^13C-DHA; Group TG were dosed with TG-^13C-DHA.
Doses were prepared by dissolving CHC13 solutions of PC-^13C-DHA or TAG-^13C-DHA in about 1 mL of refined olive oil and driving off the CHCl3 by gentle heating under flowing dry N2 over 4 hours. The resulting olive oils were carefully placed on the surface of a few mL of reconstituted piglet formula and sonicated until homogeneous. The resulting labeled formula was split into 1 to 2 mL aliquots gravimetrically and administered orally to piglets, followed by several washes of the vials containing the labeled formulas, at the beginning of a feed. Care was taken to insure all of the labeled formula and the washes, consisting of a total of up to 10 mL, were swallowed by the piglets. Piglets were then provided with their normal meal of 500 mL milk replacer which they routinely consume completely. Doses to piglets corresponded to about 20 mg ^13C-DHA delivered in PC and 86 mg of ^13C-DHA delivered in TAG.
Six days after the dose, and on a single day after 20 days of formula, all piglets were euthanized by exsanguination under anesthesia. Blood for fatty acid analysis was collected in tubes with EDTA and spun to prepare red blood cells. […] A piece was immediately used for preparation of synaptosomes, and the remaining grey matter was flash frozen for fatty acid analysis. Retina, heart, liver, biceps femoris muscle and kidney were also harvested, and all tissues were flash frozen and stored at −80° C. until prepared for analysis. […]

13C-DHA relative to 13C-DPA in grey matter: about 8 fold
13C-DHA relative to 13C-DPA in liver: 40 fold
13C-DHA relative to DPAn-3 in retina: 6.3 fold
liver 13C-DHA relative to grey matter 13C-DHA: about 20 fold
Compound: CC/C=C\C/C=C\C/C=C\C/C=C\C/C=C\C/C=C\CCC(=O)O [^13C-DHA, docosahexaenoic acid]
